Source: patent publication US8658190B2 (priority 2005, dated 2014)
Like-named read-outs stand apart in the source and are kept apart here.

Columns and labels:
mycobacteria [1] = assay: mycobactericidal / tuberculocidal activity (exposure time); assay type: cell-based
bacterial spores = conditions: background statement, cited from earlier work
[2] = stability of glutaraldehyde concentration in solution; assay type: physicochemical; conditions: composition buffered to about pH 7.3 to 7.9
mycobacteria [3] = conditions: 25 C, background statement; cited from earlier work

## CCO [Alcohol]
Mycobacteria [1]; alcohol alone, 5% to 20% by volume
  tuberculocidal activity: not tuberculocidal

## O=Cc1ccccc1C=O [Ortho-phthaladehyde, ortho-phthalaldehyde]
Bacterial spores; temperature not given
  time to kill bacterial spores: about 32 hrs

## O=CCCCC=O [Glutaraldehyde]
Bacterial spores; 25 C
  time to kill bacterial spores: about 10.0 hrs
[2]
  time glutaraldehyde is stable during use and re-use: about 14 days
Mycobacteria [3]
  time to kill 6 log 10 of mycobacteria: about 45 min
Mycobacteria [1]; 2.0% glutaraldehyde alone, 20° C., exposure time of 10 min
  tuberculocidal activity: nor is 2.0% glutaraldehyde tuberculocidal
